This is an account of results in patent publication US7056941B1 (priority 1997, dated 2006).

Consider `Cc1nn(C)c(=O)n1-c1ccccc1COc1ccn(-c2ccc(Cl)cc2)n1`, for which the melting point lay within 107 to 109 °C.
